The values below are quoted from earlier work in patent publication US20100029729A1, “COMPOUNDS” (priority 2008, published 2010).

SMILES strings stand for the structures.

Series [1] deals with circulating lymphocytes. The settings on record: animals and man.
The conditions of series [2]: clinical studies, first 24 hours of treatment.

Regarding `CCCCCCCCc1ccc(CCC(N)(CO)CO)cc1` [FTY720], in series [1], the “effect on circulating lymphocytes” value was “reduce circulating lymphocytes in animals and man”. In addition, the bradycardia entry in series [2] is “results in bradycardia in the first 24 hours of treatment”.
